From patent US11633502B2, “Bone marrow-, reticuloendothelial system-, and/or lymph node-targeted radiolabeled liposomes and methods of their diagnostic and therapeutic use” (Memorial Sloan Kettering Cancer Center, priority 2016, dated 2023)

Assay: Blood cell counts of GT3 liposome treated mice after ionizing radiation
Format: in vivo, C57/B6 mice
Settings: after exposure to 2 or 4 Gy
Method: FIGS. 28A and 28B show blood cell counts of GT3 liposome treated mice after ionization radiation. White blood cell (WBC) (FIG. 28A) and lymph (FIG. 28B) counts are shown for mice treated with 2 Gy+GT3 containing liposomes, 2 Gy, 4 Gy+GT3 containing liposomes, and 4 Gy.
C57/B6 mice were treated with GT3 containing BMT liposomes with 10 mg/kg GT3 at 24 h prior to 2 and 4 Gy. Blood cells were counted at 0, 1, 4, 6, 13 days after irradiation. […] Lymphocyte recovery is the most significant. […] This effect was not seen when GT3 was not targeted to the bone marrow.

CC(C)=CCC/C(C)=C/CC/C(C)=C/CC[C@]1(C)CCc2cc(O)c(C)c(C)c2O1 [GT3]
recovery of lymphocyte and neutrophils: not seen
